One assay relates to MCF7 breast cancer cells. The note with it: single agent; DFMO 100 μM, 5FU 2 μM 18 hrs, doxorubicin 100 nM 18 hr; spd-2a with no siRNA or control siRNA. How it is done:
(A) [^3H]-thymidine incorporation into DNA of H358 cells (left panel) or MCF-7 cells (right panel) during a 6 hour pulse ending at the indicated time points after initiation of treatment. Treatments were 50 μM 1a alone, 5 nM camptothecin alone (CPT, 18 hours), 50 μM 1a+5 nm CPT (18 hours). Control cells were left untreated. (B) 2-day 96-well viability assays of H358 cells (left panel) or MCF-7 cells (right panel) grown in presence of increasing concentrations of 1a (continuous), with or without an 18-hour treatment with 5 nM camptothecin (CPT). Cell viability, represented as a percent of untreated cell viability (i.e., no 1a, no CPT), was determined 2 days post-start of treatment by the MTS bioconversion assay (MTS=(3-(4,5′-dimethylthiazol-2-yl)-5-(3-carboxymethoxylphenyl-2-(4-sulfophenyl)-2H-tetrazolium salt). Each data point represents the average of triplicate wells. Assays were carried out under conditions such that untreated cells remained in exponential growth. (C) [^3H]-thymidine incorporation into DNA of H358 cells carried out as in part “A”. Treatment consisted of 1a alone (50 μM), or cisplatin (2 μM, 1 hour, 15 minutes) alone or together with 1a (Panel 1); or UVC (40 J/m^2), alone or together with 1a (Panel 2); or 5-fluorouracil (5FU, 2 μM, 18 hours) alone or together with 1a (Panel 3), or Taxotere™ (5 nM, 18 hours), alone or together with 1a (Panel 4). Control cells were left untreated. Symbols are as follows: (-◯-) untreated control; (-●-) 50 μM 1a, (-∇-) drug or UVC alone; (-▾-) combination 1a+drug or UVC.
Viability was measured 3 days after the start of treatment and is expressed as a percentage of control (untreated) cell viability.
Each point is average of triplicates.
Date of exp: 7-17-2010; located p.21 in Hat notebook: KB-2 (2010-2011).
Cells were plated in 96-well plates (3000 cells per well) and incubated 18 hours with or without 5 nM camptothecin (Sigma, St Louis, Mo.). Triplicate wells were then treated with varying doses of 1a (from 0-50 μM). Control cells received neither 1a nor camptothecin. 2-day viability was determined by the MTS assay as previously (Saadatmandi et al., 2002, Cancer Gene Therapy, 9: 830-9) and expressed as a percentage of control cell viability.
The present inventors carried out 96-well viability assays as we have previously described (Saadatmandi et al, Cancer Gene Therapy (2002) 9:830-9), in which MCF7 breast cancer cells were plated at 3000 cells per well. After overnight attachment, triplicate wells were treated with increasing doses of inhibitor 1a. Control wells were left untreated. After 3 days, cell viability was measured by the MTS assay, which measures the bioconversion of an uncolored substrate to a colored formazan derivative, and is proportional to cell number. […]

A further assay has as its system DLD-1 colon cancer. Briefly: subcutaneous DLD-1 tumor model in nude mice. The note with it: DFMO alone, intratumoral, 2 mg/kg. It counts as in vivo, nude mouse. How it is done: Tumors were initiated By subcutaneous implantation of […] DLD-1 colon cancer cells. […] Tumors were measured and volumes calculated as in FIG. 14.
Tumors were initiated by injecting 10^6 DLD-1 cells (from ATCC) per mouse (female nude mouse, 4-5 weeks, Harlan Labs) subcutaneously in the flank. (A) When the average tumor size reached 26 mm^3, animals were randomized into 2 groups (3 per group). One group was left untreated and served as the control (-●-). […] Tumors were measured bidirectionally at 2-3 day intervals and tumor volumes were calculated (v=½L×w^2). A paired t-test was used to evaluate the significance of the differences between the two groups of animals. […] (B) Tumors were initiated as in part (A). When tumors reached an average size of about 30 mm^3, animals were randomized into three groups of 2 animals each. The control group (-●-) received no treatment. The DFMO group (-▪-) received intratumoral injections of DFMO (2 mg/kg) on days 1, 7, 9 (5 PM), and 2, 8, 10 (9 AM, 5 PM). […] Tumors were measured and volumes calculated as in part (A). A paired t-test was used to evaluate the significance of the difference between the curves.

In assay [1] the test system is MDA MB-435 breast cancer cells. Briefly: 72 hr viability assay. The format is cell-based. The note with it: DFMO 100 μM, 5FU 2 μM 18 hrs, doxorubicin 100 nM 18 hr.
A further assay relates to γ-H2A.X in H358 cells. Kind of assay: double strand break / gamma-H2A.X Western and co-immunoprecipitation. The note with it: 18 hours post-start; 1a 50 μM, 5FU 2 μM, cisplatin 2 μM, camptothecin 5 nM. The format is cell-based. How it is done: Also shown are controls for no treatment (“c” minus 1a) or treatment with 1a only (“c” plus 1a). Each lane represents 60 μg protein. […] Each lane represents 60 μg protein.
To measure DSB repair, cells were incubated for 1 hour with 10 μM camptothecin to induce DSBs, followed by incubation in the presence or absence of 50 μM 1a. At fixed times, histones were prepared by extraction in 0.2M H2SO4 as described previously and 50 μg extract was analyzed by 12% SDS-PAGE followed Western analysis as described previously, using rabbit polyclonal anti-γ-H2A.X [phosphor ser 139] (Novus Biologicals, Littleton, Colo.) or anti-H3 (Upstate Biotechnology, Inc, Lake Placid, N.Y.). Band intensities were quantitated digitally. To study acetylation of γ-H2A.X, we carried out co-immunoprecipitation analysis using 50 μg extract protein in immunoprecipitation buffer (10 mM sodium phosphate pH 7, 0.15 M NaCl, 0.1% SDS, 1% NP40, 1% sodium deoxycholate, aprotinin, 1 mM PMSF, complete protease inhibitors (Roche) using immobilized anti-acetyl-lysine (Millipore, Temecula, Calif.) in the immunoprecipitation step. The immunoprecipitated material was then analyzed as for Western analysis using anti γ-H2A.X.
Double strand breaks (DSBs) can be formed by a variety of DNA damaging agents, including camptothecin, cisplatin, 5FU, and UVC radiation (Avemann K, et al., 1988, Mol Cell Biol, 8: 3026-34; Bogdanov K V, et al. 1997, Br J Haematol, 98:869-72; Pavon M A, et al., Int J Cancer, 2008, 123:1068-79) implying that DSB repair may play a role in reducing their cellular toxicity. To examine how 1a treatment affects DSB repair in H358 cells we made use of the fact that the histone variant, H2A.X becomes phosphorylated at sites of double strand breaks (denoted γ-H2A.X), and can be detected by immunoblot analysis of acid extracted cells (Rogaku E P, et al., 1999, J Cell Biol, 146:905-16). […] Total H3 levels and H2A.X levels (control) are unaffected by these treatments (FIG. 4B). […]

A further assay relates to H358 lung cancer cells. Kind of assay: [3H]-thymidine incorporation DNA synthesis assay. The format is cell-based. The note with it: data not shown. The procedure: (A) Structures of 1a, and the acetylated side chain of a lysine residue within the polypeptide chain of a protein targeted by the acetylating enzyme (R1 and R2 are the main chain elements on both sides of the lysyl residue). (B) [^3H]-thymidine incorporation into DNA of H358 cells pulsed for 6 hrs at three different time points after the addition of increasing concentrations of 1a, i.e., at 6-12 hrs (12 hr curve), at 18-24 hours (24 hr curve), or at 42-48 hrs (48 hr curve). Incorporation is represented as a percentage relative to control (untreated) cells. (C) Cell cycle analysis of propidium iodide-stained cells harvested at various times after addition of 50 μM 1a. % of cells in G1, S, and G2 represents the average of two independent profiles. (D) Western analysis of histone H3 lysine 9 acetylation, histone H3 lysine 56 acetylation, histone H3 lysine 9 methylation, and total histone H3, before “c” or at the indicated times after addition of 50 μM 1a. Each lane represents 60 μg cellular protein.
Control cells were left untreated. […] Control cells were left untreated.
Cells were either labeled immediately before treatment (starting DNA synthesis rate), or subjected to the indicated treatments and then pulsed on successive days until day 4. DNA synthesis is represented as the percent of starting DNA synthesis rate. Viability was determined for each treatment condition 24 hours post-start of treatment by the trypan blue exclusion assay, with percentages of viable cells indicated to the right of the graph.
H358 cells (2,000/well) in 96-well plates were treated with 1, 10 or 50 μM of spd-1a, spd-2a, spd-3a, spm3, or spm2 for 12 hours. Triplicate wells of cells were pulsed 6 hours with 0.5 μCi [^3H]-thymidine (NEN, Boston Mass.) post-start of drug treatment, and harvested onto filter paper using a Brandel Harvester and subjected to scintillation counting. Untreated cells were pulsed 0-6 hrs to establish the initial rate of incorporation.
Cells were plated in 96-well plates (2000 cells per well to insure conditions for exponential growth for untreated cells over the time course of the experiment) and exposed to the following treatments: 1a (50 μM); camptothecin (Sigma, St Louis, Mo. 5 nM, 18 hours); cisplatin (Platinol, obtained through local pharmacies, 2 μM, 1 hour 15 minutes), 5-fluorouracil (5FU, Adrucil™, obtained through local pharmacies, 2 μM, 1 hour 15 minutes), Taxotere (provided by the late Dr. Pierre Potier, 5 nM, 18 hours). UVC treatment (40 J/m^2) using a Stratalinker™, Stratagene, La Jolla, Calif.) was carried using medium lacking phenol red. At 0-6 hr, 18-24 hr (day 1), 42-48 hr […], 66-72 hr (day 3), and 90-96 hr (day 4) post-start of treatment, triplicate wells were incubated with 0.5 μCi [^3H]-thymidine (NEN, Boston Mass.), harvested onto filter paper, and subjected to scintillation counting. Trypan blue exclusion assays for cell membrane integrity were carried out as known in the art.
The present inventors used [^3H]-thymidine incorporation assays to examine DNA synthesis in H358 lung cancer cells in the presence of varying concentrations of 1a. Cells were pulsed for 6 hours with [^3H]-thymidine at three different time points after the addition of 1a (i.e., at 6-12 hours, at 18-24 hours, and at 42-48 hours). The incorporation of [^3H]-thymidine into DNA decreased with increasing concentrations of 1a at all three time points, with the maximal effect occurring with the 6-12 hour pulse (FIG. 2B).
We then used [^3H]-thymidine incorporation assays to examine DNA synthesis in H358 lung cancer cells in the presence of 1a alone, or together with an 18 hour exposure to the DNA damaging drug, camptothecin (CPT), a plant alkaloid from which an important class of topoisomerase I-targeted chemotherapeutic agents (Hycamtin [topotecan] and Camptosar [irinotecan]) has been derived (Garcia-Carbonero, et al, 2002, Clin Cancer Res 8: 641-61). […]
(In general: Dividing cells build labelled thymidine or BrdU into new DNA.)

The subject of assay [2] is endogenous HATs associated with solubilized chromatin. The note with it: literature (Bandyopadhyay et al 2009; Parello et al. 1990); cited from earlier work.

The structures appear in SMILES notation.

In the case of `NCCC[C@](N)(C(=O)O)C(F)F` [DFMO, α-difluoromethylornithine], the “3-day / 72 hr cell viability, single agent” value (from here on “3-day / 72 hr cell viability”) in the assay with MCF7 breast cancer cells is listed as “ineffective”. Besides, in the assay on DLD-1 colon cancer, the “tumor volume difference versus control” value is “not significant”. The “72 hr cell viability, single agent” value in assay [1] is recorded as “ineffective”.

On to `O=c1[nH]cc(F)c(=O)[nH]1` [5FU, 5-Fluorouracil], for which, in the assay with MCF7 breast cancer cells, the “3-day / 72 hr cell viability” value is “minimal effects”. In the assay with γ-H2A.X in H358 cells, the “γ-H2A.X level, single agent” value is “weakly detectable”. In addition, the “72 hr cell viability, single agent” value in assay [1] was “minimal effects”.

As to `COc1cccc2c1C(=O)c1c(O)c3c(c(O)c1C2=O)C[C@@](O)(C(=O)CO)C[C@@H]3O[C@H]1C[C@H](N)[C@H](O)[C@H](C)O1` [doxorubicin], in the assay on MCF7 breast cancer cells, the “3-day / 72 hr cell viability” value is given as “minimal effects”. In addition, the “72 hr cell viability, single agent” value in assay [1] is given as “minimal effects”.

Consider `N.N.[Cl][Pt][Cl]` [cisplatin, cis-diamminedichloro-platinium], for which, in the assay with γ-H2A.X in H358 cells, the “γ-H2A.X level, single agent” value is given as “weakly detectable”.

In the case of `CC(C)(COP(=O)(O)OP(=O)(O)OC[C@H]1O[C@@H](n2cnc3c(N)ncnc32)[C@H](O)[C@@H]1OP(=O)(O)O)[C@@H](O)C(=O)NCCC(=O)NCCSCC(=O)NCCCCNCCCN` [1b, spermidine [N8]-CoA], in the assay with H358 lung cancer cells, the “inhibitory activity against DNA synthesis in vivo, isomers compared” value is “comparable inhibitory activity”. In assay [2], the “inhibitory activity against endogenous HAT” value is “comparable inhibitory activity”.
